The values that follow come from BindingDB's records for PubMed 40236523 (Emory University).

Where a name gives a salt, the structure may show the parent alone. Where a SMILES comes first, the peptide text is derived from it. Bridges are numbered along the chain shown (N, C = ends). [ ]: non-standard residue; d: D form. The star is where a group is joined. Trp(7-Me) = Cc1cccc2c(C[C@H](N)C(=O)O)c[nH]c12; Lys(Me3) = C[N+](C)(C)CCCC[C@H](N)C(=O)O; 2Nal = N[C@@H](Cc1ccc2ccccc2c1)C(=O)O; AEF = NCCOc1ccc(C[C@H](N)C(=O)O)cc1; 3Pal = N[C@@H](Cc1cccnc1)C(=O)O; Lys(Me) = CNCCCC[C@H](N)C(=O)O; Pen = CC(C)(S)[C@H](N)C(=O)O; Thp = NC1(C(=O)O)CCOCC1; Me2NCH2CH2 = CN(C)CC*; Tfa = O=C(C(F)(F)F)*; Sar = CNCC(=O)O

In this test the target is Signal transducer and activator of transcription 3 (Homo sapiens, UniProt P40763). In words: Inhibition of STAT3 phosphorylation in human PBMC cells preincubated for 30 mins followed by addition of IL-23 and measured after 10 mins.
Chain of Signal transducer and activator of transcription 3 (P40763 whole entry): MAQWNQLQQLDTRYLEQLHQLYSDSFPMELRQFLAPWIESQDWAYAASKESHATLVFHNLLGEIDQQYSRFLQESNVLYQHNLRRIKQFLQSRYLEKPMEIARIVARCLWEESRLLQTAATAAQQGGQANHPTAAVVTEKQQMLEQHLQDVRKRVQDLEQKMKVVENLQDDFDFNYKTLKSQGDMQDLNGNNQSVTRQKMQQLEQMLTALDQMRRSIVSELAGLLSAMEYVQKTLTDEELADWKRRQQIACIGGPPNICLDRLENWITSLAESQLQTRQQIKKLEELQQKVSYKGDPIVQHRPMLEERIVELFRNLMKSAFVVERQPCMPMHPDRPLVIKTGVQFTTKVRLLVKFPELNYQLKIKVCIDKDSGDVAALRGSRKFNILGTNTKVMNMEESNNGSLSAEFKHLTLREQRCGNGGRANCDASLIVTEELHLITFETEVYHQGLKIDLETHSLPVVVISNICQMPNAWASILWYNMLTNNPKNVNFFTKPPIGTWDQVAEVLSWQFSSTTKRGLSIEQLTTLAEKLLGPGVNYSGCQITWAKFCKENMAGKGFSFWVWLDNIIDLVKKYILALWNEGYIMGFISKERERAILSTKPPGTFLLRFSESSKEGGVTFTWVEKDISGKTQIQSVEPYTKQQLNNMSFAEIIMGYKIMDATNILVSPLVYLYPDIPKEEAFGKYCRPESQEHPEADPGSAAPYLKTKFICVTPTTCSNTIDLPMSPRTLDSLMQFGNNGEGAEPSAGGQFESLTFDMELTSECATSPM
As usually defined, the IC50 is the point on the concentration scale where inhibition reaches its midpoint. Read a high IC50 as weaker potency in that assay. `CC(=O)NCCCC[C@@H]1NC(=O)[C@H](Cc2c[nH]c3c(C)cccc23)NC(=O)[C@H]([C@@H](C)O)NC(=O)[C@H](CC(N)=O)NC(=O)[C@@H](NC(C)=O)C(C)(C)SSC(C)(C)[C@@H](C(=O)N[C@@H](Cc2ccc(OCCCCC[N+](C)(C)C)cc2)C(=O)N[C@@H](Cc2ccc3ccccc3c2)C(=O)NC2(C(=O)N[C@@H](CCCCNC(C)=O)C(=O)N[C@@H](CC(N)=O)C(=O)N[C@@H](Cc3cccnc3)C(=O)N(C)CC(N)=O)CCOCC2)NC1=O` came in with an IC50 of 8 pM.

As to `CC(=O)N[C@@H](CCCC[N+](C)(C)C)C(=O)N[C@@H]1C(=O)N[C@@H](CC(=O)N(C)C)C(=O)N[C@@H]([C@@H](C)O)C(=O)N[C@@H](Cc2c[nH]c3c(C)cccc23)C(=O)N[C@@H](CCCCN(C)C(C)=O)C(=O)N[C@H](C(=O)N[C@@H](Cc2ccc(OCCN(C)C)cc2)C(=O)N[C@@H](Cc2ccc3ccccc3c2)C(=O)NC2(C(=O)N[C@@H](CCC(=O)O)C(=O)N[C@@H](CC(N)=O)C(=O)N[C@@H](Cc3cccnc3)C(=O)N(C)CC(=O)N(C)C)CCOCC2)C(C)(C)SSC1(C)C` (Ac-[Lys(Me3)][Pen]D(NMe2)T[Trp(7-Me)][Lys(Me)](Ac)[Pen]Y(Me2NCH2CH2)[2Nal][Thp]EN[3Pal][Sar]-NMe2; disulfide 2-7), the IC50 came out at 8 pM. Consider `CC(=O)NCCCC[C@@H]1NC(=O)[C@H](Cc2c[nH]c3c(C)cccc23)NC(=O)[C@H]([C@@H](C)O)NC(=O)[C@H](CC(N)=O)NC(=O)[C@@H](NC(=O)CCOCCOCC[N+](C)(C)C)C(C)(C)SSC(C)(C)[C@@H](C(=O)N[C@@H](Cc2ccc(OCCN)cc2)C(=O)N[C@@H](Cc2ccc3ccccc3c2)C(=O)NC2(C(=O)N[C@@H](CCC(=O)O)C(=O)N[C@@H](CC(N)=O)C(=O)N[C@@H](Cc3cccnc3)C(=O)N(C)CC(N)=O)CCOCC2)NC1=O`, for which the IC50 is 6 pM.

In turn, `CC(=O)N(C)CCCC[C@@H]1NC(=O)[C@H](Cc2c[nH]c3c(C)cccc23)NC(=O)[C@H]([C@@H](C)O)NC(=O)[C@H](CC(=O)N(C)C)NC(=O)[C@@H](NC(=O)C(F)(F)F)C(C)(C)SSC(C)(C)[C@@H](C(=O)N[C@@H](Cc2ccc(OCCN(C)C)cc2)C(=O)N[C@@H](Cc2ccc3ccccc3c2)C(=O)NC2(C(=O)N[C@@H](CCC(=O)O)C(=O)N[C@@H](CC(N)=O)C(=O)N[C@@H](Cc3cccnc3)C(=O)N(C)CC(=O)N(C)C)CCOCC2)NC1=O` (Tfa-[Pen]D(NMe2)T[Trp(7-Me)][Lys(Me)](Ac)[Pen]Y(Me2NCH2CH2)[2Nal][Thp]EN[3Pal][Sar]-NMe2; disulfide 1-6) gave an IC50 of 3 pM.

In the case of `Cc1cccc2c(C[C@@H]3NC(=O)[C@H]([C@@H](C)O)NC(=O)[C@H](CC(N)=O)NC(=O)[C@@H](NC(=O)C(F)(F)F)C(C)(C)SSC(C)(C)[C@@H](C(=O)N[C@@H](Cc4ccc(OCCN)cc4)C(=O)N[C@@H](Cc4ccc5ccccc5c4)C(=O)NC4(C(=O)N[C@@H](CCC(=O)N(C)C)C(=O)N[C@@H](CC(N)=O)C(=O)N[C@@H](Cc5cccnc5)C(=O)N(C)CC(N)=O)CCOCC4)NC(=O)[C@H](CCC(=O)N(C)C)NC3=O)c[nH]c12` (Tfa-[Pen]NT[Trp(7-Me)]E(NMe2)[Pen][AEF][2Nal][Thp]E(NMe2)N[3Pal][Sar]-NH2; disulfide 1-6), the IC50 was 8 pM.
